Assay results reported in patent US6362369B1, “Phthalic acid diamide derivatives fluorine-containing aniline compounds as starting material, agricultural and horticultural insecticides, and a method for application of the insecticides” (Nihon Nohyaku Co., Ltd., priority 1997, dated 2002).

What was measured:
Format in all cases: in vivo
[1] = tested on: diamondback moth (Plutella xylostella); experiment: Insecticidal effect on diamondback moth (Test Example 1); conditions: diamondback moth; judged by the mortality criterion of Test Example 1
Outline: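 Eggs laid by adult moths on Chinese cabbage seedlings, which were immersed in test solution, air-dried and kept at 25 °C. Hatched insects counted 6 days after immersion and mortality calculated, with effect graded by criterion; triplicate groups of 10 insects.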

[2] = tested on: common cutworm (Spodoptera Litura); experiment: Insecticidal effect on common cutworm (Test Example 2); conditions: 500 ppm; cabbage leaf immersed; second-instar larvae of common cutworm; eight days after inoculation; 25° C.
Outline: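 Mortality was scored 8 days post-inoculation, using three groups of 10 second-instar larvae kept at 25 °C in closed 9 cm dishes on air-dried treated material. The insecticidal effect was graded from calculated mortality by a set criterion.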

[3] = tested on: rice leafroller (Cnaphalocrocis medinalis); experiment: Insecticidal effect on rice leafroller (Test Example 3); conditions: 500 ppm; rice lamina immersed; third-instar larvae of rice leafroller; four days after inoculation; 25° C., humidity 70%
Outline: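 Groups of 10 third-instar larvae, in triplicate, are placed on air-dried lamina resting on wet filter paper. Incubation runs four days at 25° C with 70% humidity before survivors and dead are tallied.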

Row | Compound | Insecticidal effect, Test Example 1 [1] | Insecticidal effect, Test Example 2 [2] | Insecticidal effect, Test Example 3 [3]
1 | Cc1c(Cl)cccc1NC(=O)c1ccccc1C(=O)NC(C)C [compound 49] | A (100) | A (100) | A (100)
2 | Cc1cc(Cl)ccc1NC(=O)c1ccccc1C(=O)NC(C)C [compound 50] | A (100) | A (100) | A (100)
3 | Cc1cc(Br)ccc1NC(=O)c1ccccc1C(=O)NC(C)C [compound 52] | A (100) | A (100) | A (100)
4 | Cc1cc(C(F)(F)C(F)(F)F)ccc1NC(=O)c1ccccc1C(=O)NC(C)C [compound 55] | A (100) | B (99-90) | A (100)
5 | Cc1cc(C(F)(F)C(F)(F)C(F)(F)F)ccc1NC(=O)c1ccccc1C(=O)NC(C)C [compound 56] | A (100) | A (100) | A (100)
6 | Cc1cc(OC(F)F)ccc1NC(=O)c1ccccc1C(=O)NC(C)C [compound 58] | A (100) | A (100) | A (100)
7 | Cc1cc(OC(F)(F)C(F)F)ccc1NC(=O)c1ccccc1C(=O)NC(C)C [compound 60] | A (100) | A (100) | A (100)
8 | Cc1c(NC(=O)c2ccccc2C(=O)NC(C)C)cccc1OC(F)(F)C(F)Cl (stereo not drawn) [compound 61] | A (100) | B (99-90) | A (100)
9 | Cc1cc(OC(F)(F)C(F)Cl)ccc1NC(=O)c1ccccc1C(=O)NC(C)C (stereo not drawn) [compound 62] | A (100) | A (100) | A (100)
10 | Cc1cc(C(F)(F)C(F)(F)Br)ccc1NC(=O)c1ccccc1C(=O)NC(C)C [compound 63] | A (100) | B (99-90) | A (100)
11 | Cc1cc(C(F)(F)C(F)(Cl)Cl)ccc1NC(=O)c1ccccc1C(=O)NC(C)C [compound 64] | A (100) | B (99-90) | A (100)
12 | Cc1cc(OC(F)(F)C(F)C(F)(F)F)ccc1NC(=O)c1ccccc1C(=O)NC(C)C (stereo not drawn) [compound 65] | A (100) | A (100) | A (100)
13 | Cc1cc(OC(F)(F)C(F)(Br)C(F)(F)F)ccc1NC(=O)c1ccccc1C(=O)NC(C)C (stereo not drawn) [compound 66] | A (100) | A (100) | B (99-90)
14 | Cc1cc(OC(F)(F)C(F)OC(F)(F)F)ccc1NC(=O)c1ccccc1C(=O)NC(C)C (stereo not drawn) [compound 67] | A (100) | A (100) | A (100)
15 | Cc1cc(Sc2ccc(Cl)cc2)ccc1NC(=O)c1ccccc1C(=O)NC(C)C [compound 77] | A (100) | C (89-80) | A (100)
16 | Cc1cc(Oc2ccc(C(F)(F)F)cn2)ccc1NC(=O)c1ccccc1C(=O)NC(C)C [compound 78] | A (100) | A (100) | A (100)
17 | Cc1cc(Oc2ncc(C(F)(F)F)cc2Cl)ccc1NC(=O)c1ccccc1C(=O)NC(C)C [compound 79] | A (100) | A (100) | D (79-50)
18 | CC(C)NC(=O)c1ccccc1C(=O)Nc1ccc(OC(F)F)cc1C(F)(F)F [compound 83] | A (100) | A (100) | A (100)
19 | CC(C)NC(=O)c1c(Cl)cccc1C(=O)Nc1ccc(C(F)(C(F)(F)F)C(F)(F)F)cc1 [compound 89] | A (100) | B (99-90) | A (100)
20 | CC(C)NC(=O)c1c(Cl)cccc1C(=O)Nc1ccc(C(F)(F)C(F)(F)C(F)(F)F)cc1 [compound 90] | A (100) | A (100) | B (99-90)
21 | CC(C)NC(=O)c1c(Cl)cccc1C(=O)Nc1ccc(C(F)(F)C(F)(F)C(F)(F)C(F)(F)F)cc1 [compound 91] | A (100) | A (100) | A (100)

Row | Compound | Insecticidal effect, Test Example 1 [1] | Insecticidal effect, Test Example 2 [2] | Insecticidal effect, Test Example 3 [3]
22 | CC(C)NC(=O)c1c(Cl)cccc1C(=O)Nc1ccc(OC(F)(F)C(F)OC(F)(F)C(F)(F)C(F)(F)F)cc1 (stereo not drawn) [compound 93] | A (100) | A (100) | A (100)
23 | CC(C)NC(=O)c1c(Cl)cccc1C(=O)Nc1cccc([S+]([O-])C(F)(F)F)c1 (stereo not drawn) [compound 100] | A (100) | A (100) | A (100)
24 | CC(C)NC(=O)c1c(Cl)cccc1C(=O)Nc1ccc(SC(F)(F)C(F)F)cc1 [compound 102] | A (100) | D (79-50) | A (100)
25 | CC(C)NC(=O)c1c(Cl)cccc1C(=O)Nc1ccc(SC(F)(F)C(F)(F)Br)cc1 [compound 103] | A (100) | C (89-80) | A (100)
26 | CC(=O)c1ccc(NC(=O)c2cccc(Cl)c2C(=O)NC(C)C)cc1 [compound 109] | A (100) | A (100) | C (89-80)
27 | CC(C)NC(=O)c1c(Cl)cccc1C(=O)Nc1cccc(Cl)c1Cl [compound 111] | A (100) | C (89-80) | B (99-90)
28 | CC(C)NC(=O)c1c(Cl)cccc1C(=O)Nc1ccc(Cl)cc1Cl [compound 112] | A (100) | A (100) | A (100)
29 | CC(C)NC(=O)c1c(Cl)cccc1C(=O)Nc1ccc(F)cc1F [compound 113] | A (100) | B (99-90) | A (100)
30 | CC(C)NC(=O)c1c(Cl)cccc1C(=O)Nc1ccc(F)cc1Cl [compound 114] | A (100) | A (100) | A (100)
31 | CC(C)NC(=O)c1c(Cl)cccc1C(=O)Nc1ccc(Cl)cc1F [compound 115] | A (100) | C (89-80) | A (100)
32 | CC(C)NC(=O)c1c(Cl)cccc1C(=O)Nc1ccc(F)c(F)c1F [compound 116] | A (100) | D (79-50) | A (100)
33 | Cc1cccc(NC(=O)c2cccc(Cl)c2C(=O)NC(C)C)c1C [compound 117] | A (100) | A (100) | A (100)
34 | Cc1c(Cl)cccc1NC(=O)c1cccc(Cl)c1C(=O)NC(C)C [compound 118] | A (100) | A (100) | A (100)
35 | Cc1cc(Cl)ccc1NC(=O)c1cccc(Cl)c1C(=O)NC(C)C [compound 119] | A (100) | A (100) | A (100)
36 | Cc1ccc(Cl)cc1NC(=O)c1cccc(Cl)c1C(=O)NC(C)C [compound 120] | A (100) | D (79-50) | A (100)
37 | Cc1cc(Br)ccc1NC(=O)c1cccc(Cl)c1C(=O)NC(C)C [compound 121] | A (100) | A (100) | A (100)
38 | Cc1cc(I)ccc1NC(=O)c1cccc(Cl)c1C(=O)NC(C)C [compound 122] | A (100) | A (100) | A (100)
39 | COc1ccc(NC(=O)c2cccc(Cl)c2C(=O)NC(C)C)c(C)c1C [compound 124] | A (100) | A (100) | A (100)
40 | CC(C)NC(=O)c1c(Cl)cccc1C(=O)Nc1ccc(C(F)(F)F)cc1Cl [compound 125] | A (100) | B (99-90) | A (100)
41 | CC(C)NC(=O)c1c(Cl)cccc1C(=O)Nc1ccc(C(F)(C(F)(F)F)C(F)(F)F)cc1Cl [compound 126] | A (100) | A (100) | A (100)
42 | Cc1cc(C(F)(F)F)ccc1NC(=O)c1cccc(Cl)c1C(=O)NC(C)C [compound 127] | A (100) | A (100) | A (100)
